According to patent US12357626B2, “Anthranilic acid-based compound, and Pin1 inhibitor, therapeutic agent for inflammatory diseases and therapeutic agent for cancer that use the same” (Amenis Bioscience, Inc., priority 2017, dated 2025):

What was measured:
Pin1 = target: T1, Pin1 (Homo sapiens, UniProt Q13526); assay: Cell-based evaluation of Pin1 inhibition activity with AMPK phosphorylation level as index (293T cells, Western blot); parameters: key: +++: a higher level of AMPK phosphorylation is promoted, as compared with C1; ++: a similar level of AMPK phosphorylation is promoted, as compared with C1; +: a lower level of AMPK phosphorylation is promoted, as compared with C1; −: no or almost no promotion is found in AMPK phosphorylation; conditions: compound at 100 μM, 30 minutes, then 10 mM 2-DG for one hour, pAMPK level compared with C1
T1 construct: endogenous in cells; host or cells: 293T cells
T1 sequence (Q13526 whole entry): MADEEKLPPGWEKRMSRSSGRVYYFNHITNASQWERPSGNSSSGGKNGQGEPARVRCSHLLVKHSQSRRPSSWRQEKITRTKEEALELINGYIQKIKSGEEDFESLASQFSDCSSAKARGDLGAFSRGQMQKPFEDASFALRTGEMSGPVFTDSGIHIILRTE
Method: To evaluate the inhibitory activity of each compound synthesized in Example 1 against the function of Pin1, a cell-based assay was performed according to the method previously developed by the inventors (Yusuke Nakatsu et al., Journal of Biological Chemistry, 2015, Vol. 290, No. 40, pp. 24255-24266), in which the phosphorylation level of AMPK (AMP-activated protein kinase), a protein whose phosphorylation is inhibited by Pin1, was examined as an index.
Briefly, 293T cells were plated on a collagen-coated 24-well plate. Forty-eight hours later, each compound synthesized in the preceding example (at 100 μM) was added to the plate, and the plate was left to stand in an incubator for 30 minutes. Subsequently, 10 mM 2-DG was added to the plate, and one hour later, each sample was collected with a buffer containing mercaptoethanol and SDS.
SDS-PAGE and blotting were performed, and blocking was then performed with 3% BSA for 1 hour, according to conventional protocols. Subsequently, a pAMPK antibody (Cell Signaling; diluted 1:2000 in Can Get Signal Solution 1, Toyobo) as a primary antibody, and an HRP-linked anti rabbit IgG (GE Healthcare; diluted 1:4000 in Can Get Signal Solution 2, Toyobo) as a secondary antibody were allowed to react at ambient temperature for 1 hour prior to detection.
The inhibitory activity against the function of Pin1 was evaluated by comparing the inhibition levels between each compound and a known Pin1 inhibitor, C1, as indicated below:
(+++): a higher level of AMPK phosphorylation is promoted, as compared with C1;
(++): a similar level of AMPK phosphorylation is promoted, as compared with C1;
(+): a lower level of AMPK phosphorylation is promoted, as compared with C1;
(−): no or almost no promotion is found in AMPK phosphorylation.

[1] = test system: non-alcoholic steatohepatitis (NASH) model mice (HFDT); conditions: intraperitoneal 2.5 mg/kg/day three times a week
Method: Animal experiments were performed using non-alcoholic steatohepatitis (NASH) model mice to test the compounds according to the present invention for the therapeutic effect on NASH.
NASH model mice (hereinafter referred to as “NASH mice”) were produced by feeding a high-fat diet containing trans fatty acids (HFDT) to individual male laboratory mice (C57BL/6J) for 8 weeks. The mice were divided into groups, and animal experiments were performed on a group of mice to which a compound according to the present invention (H-77) was administered intraperitoneally at a dose of 2.5 mg/kg/day three times a week, and a group of mice to which Juglone, a known Pin1 inhibitor, was administered intraperitoneally at a dose of 2.5 mg/kg/day three times a week, and a group of mice to which nothing was administered, during the 8-week HFDT feeding period. In addition, a normal diet was given to individual male laboratory mice (C57BL/6J) for 8 weeks to prepare control mice.

DU145 cells = assay: Cancer treatment study in nude mice implanted with DU145 tumors; format: in vivo, nude mice (BALB/c-slc-nu/nu mice); conditions: intraperitoneal 2.5 mg/kg/day 5 times a week for 9 weeks, versus control mice
Method: An animal experiment was performed using mice transplanted with cancer cells to test the therapeutic effects of the compounds according to the present invention on cancer.
A first tumor (DU145 cells) with Matrigel plug was implanted in the middle of the upper back of nude mice (BALB/c-slc-nu/nu mice).
Five weeks after the first implantation, a second tumor (DU145 cells) was implanted in the middle of the left and right sides of the back of the nude mice.
Intraperitoneal administration of a compound according to the present invention, H-77, at a dose of 2.5 mg/kg/day and a frequency of 5 times a week was started 6 weeks after the first implantation, at which the first tumor became measurable (at this timing, the second tumor was so small in size and not measurable), and was continued for 9 weeks. No compound was administered to a group of mice to prepare control mice.
The volume of the second tumor was so small and not measurable at the beginning of administration of the compound. Therefore, the result from the second tumor is expressed in volume (mm^3), but not in ratio.

[2] = test system: NASH mice (methionine-choline-deficient diet, MCDD); assay: NASH treatment study in MCDD-fed NASH mice; format: in vivo, mice (C57BL/6J); conditions: NASH mice given MCDD for 8 weeks; intraperitoneal 2.5 mg/kg/day three times a week; FIG. 3
Method: Next, an animal experiment was performed on NASH mice that were produced by feeding a methionine-choline-deficient diet (MCDD).

Compound	Pin1 inhibition activity (Pin1)	further results
COC(=O)c1cc(OCc2ccccc2)ccc1NC(=O)c1ccc2ccccc2c1 [Compound H-68]	+	
O=C1C=CC(=O)c2c(O)cccc21 [Juglone, reference compound]		death of the mice during the study ([1]; NASH mice given HFDT for 8 weeks): all dead within 8 weeks
CC(=O)Nc1ccc(OCc2ccc3ccccc3c2)cc1C(=O)O [Compound H-297]	+++	
COC(=O)c1cc(OCc2ccc3ccccc3c2)ccc1NC(C)=O [Compound H-182]	++	
CC(=O)Nc1ccc(OCc2ccccc2)cc1C(=O)O [Compound H-296, reference compound]	−	
COC(=O)c1cc(OCc2ccc3ccccc3c2)ccc1N [Compound H-300]	+++	
O=C(Nc1ccc(OCc2ccccc2)cc1C(=O)O)c1ccc2ccccc2c1 [Compound H-77]	+++	tumor volume ratio of the first tumor (DU145 cells; first DU145 tumor, FIG. 4 (A)): tumor size growth was suppressed; volume of the second tumor (DU145 cells; second DU145 tumor, FIG. 4 (B)): tumor size growth was suppressed; liver weight ([1]; NASH mice given HFDT for 8 weeks, FIG. 1 (A)): increase in liver weight was reduced; blood AST (GOT) concentration ([1]; NASH mice given HFDT for 8 weeks, FIG. 1 (B)): AST value was decreased; fat accumulation in liver tissue (microscopic observation of sections) ([1]; NASH mice given HFDT, FIG. 2): reduced fat accumulation; hepatic fibrosis (liver tissue sections with Azan staining) [2]: hepatic fibrosis was significantly inhibited
O=C(Nc1ccc(OCc2ccccc2)cc1C(=O)O)c1ccc2ccccc2n1 [Compound H-339]	+	
O=C(O)c1cc(OCc2ccccc2)ccc1NS(=O)(=O)c1ccc2ccccc2c1 [Compound H-338]	+	
O=C(COc1ccc2ccccc2c1)Nc1ccc(OCc2ccccc2)cc1C(=O)O [Compound H-362]	+	

The next lines start with results.

Pin1 inhibition activity (Pin1)	Compound	further results
+	Nc1ccc(OCc2ccc3ccccc3c2)cc1C(=O)O [Compound H-443]	
+	O=C(O)c1cc(OCc2ccccc2)ccc1NC(=O)c1cccc2ccccc12 [Compound H-370]	
+	O=C(Nc1ccc(OCc2ccc3ccccc3c2)cc1C(=O)O)c1ccc2ccccc2c1 [Compound H-371]	
+	O=C(O)c1cc(OCc2ccc3ccccc3c2)ccc1NS(=O)(=O)c1ccc2ccccc2c1 [Compound H-376]	
+	O=C(Nc1ccc(OCc2ccccc2)cc1C(=O)O)c1cccc(Oc2ccccc2)c1 [Compound H-363]	
